Source: US10246469B2, “Biaryl kinase inhibitors” (BRISTOL-MYERS SQUIBB COMPANY, priority 2015, dated 2019)

Biological target: T1, GST-Xa-hAAK1 (Homo sapiens, UniProt Q2M2I8)
T1 construct: GST (N); Factor Xa cleavage site (Xa) (internal); made in house
Assay: AAK1 Kinase Assay
Format: biochemical
Details: bacterially expressed GST-Xa-hAAK1 3.5 nM; ATP 22 μM; fluoresceinated peptide 1.5 μM; 3 hours at room temperature; Caliper LabChip 3000
Summary of the method: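 Bacterially expressed GST-Xa-hAAK1 (3.5 nM) phosphorylated 1.5 μM 5-FAM peptide with 22 μM ATP in Tris pH 7.4, MgCl2, DTT, 1.6% DMSO, 3 h at room temperature. EDTA-stopped; product separated electrophoretically on Caliper LabChip. IC50 from eleven concentrations by non-linear regression.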

T1 sequence (Q2M2I8 whole entry): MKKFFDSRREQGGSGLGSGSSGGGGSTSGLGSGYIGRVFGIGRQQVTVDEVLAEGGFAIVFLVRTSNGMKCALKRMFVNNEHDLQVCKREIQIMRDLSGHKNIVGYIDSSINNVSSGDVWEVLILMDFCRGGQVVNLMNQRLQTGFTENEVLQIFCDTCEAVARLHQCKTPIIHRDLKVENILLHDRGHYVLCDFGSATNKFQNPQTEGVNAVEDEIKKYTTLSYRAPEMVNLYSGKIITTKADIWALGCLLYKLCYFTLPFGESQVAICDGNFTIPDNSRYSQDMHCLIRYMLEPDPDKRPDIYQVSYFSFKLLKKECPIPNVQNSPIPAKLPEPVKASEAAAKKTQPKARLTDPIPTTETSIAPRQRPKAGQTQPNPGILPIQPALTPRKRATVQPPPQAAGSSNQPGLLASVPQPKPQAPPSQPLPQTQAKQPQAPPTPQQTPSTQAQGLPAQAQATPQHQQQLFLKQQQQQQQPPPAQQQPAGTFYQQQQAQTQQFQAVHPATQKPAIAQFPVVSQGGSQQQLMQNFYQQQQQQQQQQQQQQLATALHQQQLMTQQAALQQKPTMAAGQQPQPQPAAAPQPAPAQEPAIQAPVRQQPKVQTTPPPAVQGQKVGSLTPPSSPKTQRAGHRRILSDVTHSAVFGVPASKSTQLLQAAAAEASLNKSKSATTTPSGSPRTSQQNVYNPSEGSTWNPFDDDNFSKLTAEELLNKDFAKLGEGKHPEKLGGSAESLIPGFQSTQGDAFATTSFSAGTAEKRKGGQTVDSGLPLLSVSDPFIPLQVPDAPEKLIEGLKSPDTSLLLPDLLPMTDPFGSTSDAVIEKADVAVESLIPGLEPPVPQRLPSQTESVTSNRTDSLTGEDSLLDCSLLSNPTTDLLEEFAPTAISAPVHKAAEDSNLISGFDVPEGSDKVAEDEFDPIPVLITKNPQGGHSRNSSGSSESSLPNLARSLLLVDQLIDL

Row | IC50 [nM] | SMILES
1 | 11 | Cc1cn2nccc(-c3ccc(OC[C@@](C)(N)CC(C)C)c(F)c3)c2n1 [Example 497, (S)-1-(2-fluoro-4-(2-methylimidazo [1,2-b]pyridazin-8-yl)phenoxy)-2,4-dimethylpentan-2-amine]
2 | 50 | CC(C)C[C@](C)(N)COc1ccc(-c2ccnc(NC3CCCOC3)c2)cc1C(F)(F)F (single isomer, unassigned) [Example 477]
3 | 184 | CC(=O)Nc1cc(-c2ccc(OC[C@@](C)(N)CC(C)C)c(F)c2)n2nccc2n1 [Example 463, (S)—N-(7-(4-((2-amino-2,4-dimethylpentyl)oxy)-3-fluorophenyl)pyrazolo [1,5-a]pyrimidin-5-yl) acetamide]
4 | 62 | CC(C)C[C@](C)(N)COc1ccc(-c2cnc3cccnn23)cc1Cl [Example 503, (S)-1-(2-chloro-4-(imidazo [1,2-b]pyridazin-3-yl)phenoxy)-2,4-dimethylpentan-2-amine]
5 | 144 | Cc1cc(-c2cnc3cccnn23)ccc1OC[C@@](C)(N)CC(C)C [Example 502, (S)-1-(4-(imidazo[1,2-b]pyridazin-3-yl)-2-methylphenoxy)-2,4-dimethylpentan-2-amine]
6 | 297 | CC(C)C[C@](C)(N)COc1ccc(-c2cc(Cl)nn3cc(C4CC4)nc23)cc1C(F)(F)F [Example 496, (S)-1-(4-(6-chloro-2-cyclopropylimidazo [1,2-b]pyridazin-8-yl)-2-(trifluoromethyl)phenoxy)-2,4-dimethylpentan-2-amine]
7 | 495 | Cc1cc(-c2ccc(OC[C@@](C)(N)CC(C)C)c(C#N)c2)n2nc(C)cc2n1 [Example 464, (S)-2-((2-amino-2,4-dimethylpentyl)oxy)-5-(2,5-dimethylpyrazolo[1,5-a]pyrimidin-7-yl)benzonitrile]
8 | 0.5 | Cc1cn2nccc(-c3ccc(OC[C@@](C)(N)CC(C)C)c(C(F)(F)F)c3)c2n1 [Example 498, (S)-2,4-dimethyl-1-(4-(2-methylimidazo[1,2-b]pyridazin-8-yl)-2-(trifluoromethyl)phenoxy)pentan-2-amine]
9 | 391 | CC(C)C[C@](C)(N)COc1ccc(-c2cc(N)nc3ccnn23)c(F)c1 [Example 455, (S)-7-(4-((2-amino-2,4-dimethylpentyl)oxy)-2-fluorophenyl)pyrazolo[1,5-a]pyrimidin-5-amine]

The remaining lines, values behind:

Row | SMILES | IC50 [nM]
10 | CC(C)C[C@](C)(N)COc1ccc(-c2ccnc(NC3CCOC3)c2)cc1Cl (stereo partly drawn) [Example 345, 4-(4-(((S)-2-amino-2,4-dimethylpentyl)oxy)-3-chlorophenyl)-N-(tetrahydrofuran-3-yl)pyridin-2-amine] | 5.2
11 | Cc1cc(-c2ccnc(Nc3nccs3)n2)ccc1OC[C@@](C)(N)CC(C)C [Example 368, (S)—N-(4-(4-((2-amino-2,4-dimethylpentyl)oxy)-3-methylphenyl)pyrimidin-2-yl)thiazol-2-amine] | 0.3
12 | CC(C)C[C@](C)(N)COc1ccc(-c2ccnc3cc(C(F)(F)F)nn23)cc1F [Example 335, (S)-1-(2-fluoro-4-(2-(trifluoromethyl)pyrazolo[1,5-a]pyrimidin-7-yl)phenoxy)-2,4-dimethylpentan-2-amine] | 262
13 | Cc1csc(Nc2nccc(-c3ccc(OC[C@@](C)(N)CC(C)C)c(C#N)c3)n2)n1 [Example 380, (S)-2-((2-amino-2,4-dimethylpentyl)oxy)-5-(2-((4-methylthiazol-2-yl)amino)pyrimidin-4-yl)benzonitrile] | 1
14 | Cc1csc(Nc2cc(-c3ccc(OC[C@@](C)(N)CC(C)C)c(Cl)c3)ccn2)n1 [Example 262, (S)—N-(4-(4-((2-amino-2,4-dimethylpentyl)oxy)-3-chlorophenyl)pyridin-2-yl)-4-methylthiazol-2-amine] | 1.9
15 | Cc1cc(-c2ccnc(NC3CCOC3)c2)ccc1OC[C@@](C)(N)CC(C)C (stereo partly drawn) [Example 346, 4-(4-(((S)-2-amino-2,4-dimethylpentyl)oxy)-3-methylphenyl)-N-(tetrahydrofuran-3-yl)pyridin-2-amine] | 23
16 | Cc1cc(-c2ccnc3ccnn23)cnc1OC[C@@](C)(N)CC(C)C [Example 275, (S)-2,4-dimethyl-1-((3-methyl-5-(pyrazolo[1,5-a]pyrimidin-7-yl)pyridin-2-yl)oxy)pentan-2-amine] | 2.2
17 | CC(C)C[C@](C)(N)COc1ccc(-c2ccnc(Nc3nccs3)c2)cc1C(F)(F)F [Example 256, (S)—N-(4-(4-((2-amino-2,4-dimethylpentyl)oxy)-3-(trifluoromethyl)phenyl)pyridin-2-yl)thiazol-2-amine] | 0.82
18 | CC(C)C[C@](C)(N)COc1ccc(-c2ccnc3[nH]c(N)nc23)cc1C#N [Example 254, (S)-2-((2-amino-2,4-dimethylpentyl)oxy)-5-(2-amino-3H-imidazo[4,5-b]pyridin-7-yl)benzonitrile] | 22
19 | CC(C)C[C@](C)(N)COc1ccc(-c2cc(NC3CCCOC3)ncn2)cc1C(F)(F)F (stereo partly drawn) [Example 358, 6-(4-(((S)-2-amino-2,4-dimethylpentyl)oxy)-3-(trifluoromethyl)phenyl)-N-(tetrahydro-2H-pyran-3-yl)pyrimidin-4-amine] | 385
20 | CC(C)C[C@](C)(N)COc1ccc(-c2ccnc(NC3CCCOC3)c2)cc1Cl (single isomer, unassigned) [Example 340] | 110
21 | CC(C)C[C@](C)(N)COc1ccc(-c2ccnc3cc[nH]c23)cc1C(F)(F)F [Example 424, (S)-1-(4-(1H-pyrrolo[3,2-b]pyridin-7-yl)-2-(trifluoromethyl)phenoxy)-2,4-dimethylpentan-2-amine] | 1.2
22 | CC(C)C[C@](C)(N)COc1ccc(-c2cnn3cccnc23)cc1Cl [Example 332] | 94
23 | CC(C)C[C@](C)(N)COc1ccc(-c2ccnc3c2C(=O)N(C)C3)cc1C#N [Example 414, (S)-2-((2-amino-2,4-dimethylpentyl)oxy)-5-(6-methyl-5-oxo-6,7-dihydro-5H-pyrrolo[3,4-b]pyridin-4-yl)benzonitrile] | 47
24 | CC(C)C[C@](C)(N)COc1ccc(-c2ccnc3[nH]ncc23)cc1Cl [Example 284, (S)-1-(2-chloro-4-(1H-pyrazolo[3,4-b]pyridin-4-yl)phenoxy)-2,4-dimethylpentan-2-amine] | 0.6
25 | CC(C)C[C@](C)(N)COc1ccc(-c2ccnc3cc[nH]c23)cc1F [Example 420, (S)-1-(2-fluoro-4-(1H-pyrrolo[3,2-b]pyridin-7-yl)phenoxy)-2,4-dimethylpentan-2-amine] | 1.1
26 | CC(C)C[C@](C)(N)COc1ncc(-c2cc(NC3CCOC3)ncn2)cc1Cl (stereo partly drawn) [Example 449, 6-(6-(((S)-2-amino-2,4-dimethylpentyl)oxy)-5-chloropyridin-3-yl)-N-(tetrahydrofuran-3-yl)pyrimidin-4-amine] | 352
